The text below walks through data of patent publication US8993310B2, “Device for diagnosis of physiologic status and/or selection of the best spermatozoa of a semen sample based on chemotaxis, and procedure of use thereof” (Consejo Nacional de Investigaciones Cientificas y Technicas …, priority 2009, dated 2015).

This assay concerns spermatozoa. As to the kind of experiment: Sperm separation by chemotaxis in the two-compartment device (aggregation in compartment 1a). Type of assay: cell-based. Conditions: for percentage of aggregated spermatozoa in compartment 1a by chemotaxis (net, Δ vs control): 6 million S/ml, 10 pM progesterone, 20 minutes incubation. The procedure: Separation of mobile spermatozoa (S) of seminal plasma is done by the Percoll technique. A volume of about 2 ml semen is used, which is deposited on 1 ml Percoll gradient (lower layer: 500 μl Percoll 95%, upper layer: 500 μl of Percoll 47.5%, in HAM-F10). After centrifuging 20 minutes at 1800 rpm, the cell pellet is recovered and washed twice by centrifugation for 7 min at 1000 rpm, with HAM-F10 medium. Finally, the recovered pellet is suspended in 1 ml of HAM-F10 medium, cell count is performed in a cell count chamber, and volume is adjusted in order to obtain a concentration of 8 million S/ml. S capability is increased in HAM-F10 medium supplemented with 1% human serum albumin (HSA) for 4 hours a 37° C., under 5% CO2 atmosphere in air.
When capacitation time is finished, S concentration is adjusted in order to obtain 6 million mobile S/ml, and two devices are set up as described in the preceding section (FIGS. 1-3), one without attractant as negative control, and the other with progesterone as attractant.
To set up the device control, a device as described in FIGS. 1 to 3, proceed as follows: 1) the plug is placed in compartment 1a, where culture medium (HAM-F10/1%HSA) is placed, 2) the bridge linking both compartments is filled with culture medium, 3) S suspension is placed in compartment 1b (130 μl of the solution of 6 million mobile S/ml) and this compartment is closed with the plug, 4) compartment 1a is unplugged and filled with culture medium (130 μl).
For device set up with the attractant, another device is prepared as described in FIGS. 1 to 3, like the device control but replacing culture medium with a 10 pM Progesterone solution diluted in culture medium. Once both devices are set up (“Control” and “Attractant”), they are incubated for 20 minutes at 37° C., under 5% CO2 atmosphere in air.
To take the device apart and recover the best spermatozoa, the compartment solution (1a) containing culture medium or attractant is removed. On the spermatozoa suspension removed from compartment 1a of both devices (control and attractant) cell count is performed in a cell count chamber. Then the difference in percentage of S found in each of these two compartments is determined, which enables to value net percentage of S migrating to the attractant-containing compartment (“Δ”).

Entries after “also recorded” stand apart in the source; their conditions may differ.

Consider `CC(=O)[C@H]1CC[C@H]2[C@@H]3CCC4=CC(=O)CC[C@]4(C)[C@H]3CC[C@]12C` [progesterone], for which the “percentage of aggregated spermatozoa in compartment 1a by chemotaxis (net, Δ vs control)” value was “about 10%”. Besides, under “listed as Progesterone”, the “percentage of aggregated spermatozoa in compartment 1a by chemotaxis (net, Δ vs control)” value came out at 9±0.4%. For the same compound, under “decreasing gradient of attractant compared with increasing gradient (FIG. 10)”, the “sperm aggregation in a decreasing versus an increasing gradient of progesterone” value is given as “similar”. Also, for the setting “equal concentration of hormone in both compartments 1a and 1b (FIG. 10)”, the “sperm aggregation in the absence of gradient of progesterone” value is “sperm aggregation is reduced; also recorded: no sperm aggregation observed”.
For the compound `C[C@H]1O[C@@H](n2cnc3c(N)ncnc32)C[C@@H]1O` [ddAdo], under “cells pre-treated, progesterone as attractant (FIGS. 8 and 9)”, the “sperm aggregation in compartment 1a by chemotaxis when cells were previously treated with inhibitor or antibody” value is “no sperm aggregation due to chemotaxis is seen”.
